e = 2'-O-(2-methoxyethyl) (MOE); d = 2'-deoxy (DNA)
What was measured:
Mel Juso melanoma cells = test: Cell survival of Mel Juso melanoma cells (Neo or clusterin overexpression) in cisplatin, Cell-titer 96; assay type: cell-based, human; conditions: 10 μM cisplatin, clusterin-overexpressing vs empty vector (Neo) Mel Juso cells
Experimental: Mel Juso melanoma cells stably tranfected with either an empty control vector (Neo) or a vector directing overepression of clusterin were grown in medium containing 10 μM cisplatin. Cell survival was measured using the Cell-titer 96 kits from Promega.

518A2 cells = test: Sensitivity of antisense-treated melanoma cells to consecutive cisplatin treatment; assay type: cell-based, human; conditions: another melanoma cell line (FIG. 2, 518A2), compared to control-mismatch oligonucleotide
human melanoma cells = test: Apoptotic cell death of human melanoma cells after antisense treatment; assay type: cell-based; conditions: antisense treatment alone
clusterin = test: Clusterin expression in human melanoma cells by RT-PCR and western-blot; assay type: cell-based; conditions: as compared to the scrambled mismatch control
Experimental: Expression of clusterin in two different batches of normal human melanocytes (NHEM 6083 and 2489) and four human melanoma cell lines (518A2, SKMEL-28, Mel-Juso and 607B). Cells were grown in 6 cm dishes and harvested when they were 80-90% confluent. 30 μg of protein per lane was applied onto a 10% SDS-Page gel and probed with a polyclonal goat anti-clusterin antibody. Panceau red stain and an antibody directed against β-actin were used as a loading control. In each case, the antisense inhibitor of clusterin used is based on the advanced antisense chemistry 2′MOE as described in U.S. patent application Ser. No. 10/080,794 and has the sequence of Seq. ID. NO. 4.
FIG. 2 provides a graphic representations of clusterin expression in 518A2 cells after treatment with cisplatin and either an antisense oligonucleotide or a scrambled control. Lip is a Lipofectin control without oligonucleotide. Detection was performed using an antibody directed against clusterin.

607B melanoma cells = test: Cell number of 607B melanoma cells measured photometrically using MTS; assay type: cell-based, human
Experimental: Lipofectin™ (lip) without oligonucleotide was used as a control. Cells numbers in 96 well plates were measured photometrically using MTS (Cell Titer 96™, […]).

bcl-xL = bcl-xL expression in clusterin-expressing melanoma cells (Western blotting); assay type: cell-based, human
Source text: While chaperone-like function has been proposed for the clusterin protein, the specific molecular mechanism responsible for clusterin's role in apoptosis remains elusive. In the human melanoma cell line that expressed clusterin at a very low levels, over-expression of clusterin by stable transfection not only led to a marked increase in resistance to a cytotoxic treatment (FIG. 3), but led also to an up-regulation of the anti-apoptotic bcl-2 family member bcl-xL as shown by Western blotting. […] Thus, clusterin regulates the anti-apoptotic bcl-2 family member bcl-xL. Such inhibition is significant because bcl-xL is known to act as an inhibitor of apoptosis (See U.S. Pat. No. 6,182,216 which is incorporated herein by reference in those jurisdictions permitting such incorporation).

Compound | effectiveness of the chemotherapy agent (cell survival) (Mel Juso melanoma cells) | sensitivity of surviving cells to consecutive treatment with cisplatin (518A2 cells) | apoptotic cell death (human melanoma cells) | down-regulation of clusterin on the mRNA level (clusterin; RT-PCR) | down-regulation of clusterin on the protein level (clusterin; western-blot) | cell death (607B melanoma cells; 607B melanoma cell line, antisense treatment alone) | cell counts (607B melanoma cells; 607B melanoma cells, antisense at 250 and 500 nM on two consecutive days, vs scrambled control 100 nM and Lipofectin) | expression of bcl-xL (bcl-xL)
N.N.[Cl][Pt][Cl] [cisplatin] | reduced the effectiveness |  |  |  |  |  |  | 
cagcagcagagtcttcatcat (CAGCAGCAGAGTCTTCATCAT; sugars from the 5' end e4 d13 e4, all phosphorothioate, methylation of C not given here) [MOE modification of Seq. ID. NO. 4] |  | increased sensitivity | increase in apoptotic cell death | dose dependent down-regulation | dose dependent down-regulation | complete cell death | significantly reduced | marked down-regulation
